# Source: patent US4444778A, “Method and composition for treating atherosclerosis” (priority 1982, dated 1984)
# “Also recorded” adds a separate entry of the source.
# Experiments:
# [1] = test system: Smooth muscle cells (BASMC); test: Smooth muscle cell number, 96 h incubation with serotonin, PDGF or serotonin receptor blocker (Example 2, Table II); type: cell-based, bovine; conditions: for effect on serotonin-induced increase in smooth muscle cell number / Cell Number/Plate: 96 h, 2.5% platelet-poor plasma; for effect on serotonin-induced increase in smooth muscle cell number: similar = as with cyproheptadine; for Cell Number/Plate: mean ± SEM, n = 6
# Description: Smooth muscle cells are grown from explants of bovine aortic media as described by Coughlin, et al (Platelet-Dependent Stimulation of Prostacyclin Synthesis by Platelet Derived Growth Factor, Nature, 288, pp. 600-602, 1980). Cells are seeded at 10^5 cells per 35 mm tissue culture well in Dulbecco's Modified Eagle Medium containing 10% calf serum and allowed to grow for 24 hours. The serum-containing medium is then removed and the cells are allowed to become quiescent in Medium 199 for 24 hours. The quiescent cultures are then incubated for 72 hours in Medium 199, with or without the mitogen to be tested. After the 72-hour incubation period, the cells are harvested for cell-number determination by Coulter Counter.
# Smooth muscle cells are seeded and made quiescent as described in Example 1. Cultures are then treated with serotonin, PDGF or cyproheptadine, a serotonin receptor blocker. The cultures are then incubated for 96 hours in Medium 199 containing 2.5% platelet-poor plasma and the treatment to be tested.
# [2] = test system: Smooth muscle cells; test: 3H-thymidine incorporation into smooth muscle cells (Example 3, Table III); type: cell-based; conditions: for effect on 3H-thymidine incorporation / response to serotonin: cyproheptadine 10^-7 M, similar = as with cyproheptadine; for CPM/Well (3H-thymidine incorporation): about 36 h, mean ± SEM, n = 4; for % Increase (3H-thymidine incorporation): versus control
# Description: In this experiment, stimulation of ^3 H-thymidine incorporation is used as an index of the ability of a compound to promote smooth muscle cell proliferation. Smooth muscle cells are seeded in 96 well Linbro racks (5 mm diameter/well) and allowed to grow for 72 hours. […] After approximately 36 hours, the cells are washed with saline, fixed with 10% TCA, washed with water, lysed with 1% SDS, and the lysate counted for ^3 H. This procedure allows the investigator to assess the amount of ^3 H-thymidine taken up by smooth muscle cells and incorporated into DNA.
# [3] = test system: aortic smooth muscle cell proliferation after vascular injury; test: Specific activity of aortic smooth muscle cell DNA after balloon catheter vascular injury (Example 4, Table IV); type: in vivo, rat; design: Specific Activity for smooth muscle cell DNA, repeat test: concentration or dose not given beside the values; conditions: for inhibition of injury-induced smooth muscle cell proliferation: after experimental vascular injury, similar = as with methiothepin 10 mg/kg i.p.; for dose dependent Specific Activity, methiothepin: vehicle = 100; for Specific Activity for smooth muscle cell DNA, repeat test: untreated 100, vehicle 92, standard error (%) in own column
# Description: Rat aortas are denuded of endothelium by passing a catheter with an inflated balloon at its tip down the length of the blood vessel. In animal models, this type of vascular injury has been shown by Goldberg, et al (Vascular Smooth Muscle Cell Kinetics: A New Assay For Studying Patterns of Cellular Proliferation In Vivo, Science, 205, 920-922, 1979), to stimulate formation of vascular lesions resembling those of human atherosclerosis 48 hours after injury. The rats are injected intravenously with ^3 H-thymidine, which is incorporated into the DNA of proliferating smooth muscle cells. After one hour, the specific activity of aortic smooth muscle cell DNA is determined and used as an index of smooth muscle cell proliferation in the injured vessel wall.
# [4] = test system: vascular lesions of the aorta after de-endothelialization; test: Lesion area after aortic de-endothelialization (Example 5, Table V); type: in vivo, rat (male Sprague-Dawley); conditions: 25 mg/kg by gavage
# From the text: The use of serotonin antagonists in preventing or impeding arteriosclerotic lesion is indicated in vivo essentially in accordance with the de-endothelialization procedure of Tiell, et al (Influence of the Pituitary on Arterial Intima Proliferation in the Rat, Circulation Research, Vol. 42, No. 5, […], May 1978). Male Sprague-Dawley rats weighing 300-360 grams are fed a constant formula rodent lab chow and water ad libitum for two weeks prior to the start of the test. For two days before de-endothelialization and for the following 14 days until sacrifice, the animals receive either a placebo or 1 to 200 milligrams per kilogram per day of test compound. On the day of de-endothelialization, the drug is administered intravenously at one-tenth the oral dosage. De-endothelialization is carried out in the aortas of the anesthetized animals by balloon catheterization. The animals are weighed daily from the time of dosing and their behavior is recorded 3 to 4 hours following administration of the test compound. Fourteen days after catheterization, whole body perfusion fixation is carried out at 37° C. with 3% buffered glutaraldehyde in 0.15 M sodium cacodylate at pH 7.4 under 90-100 millimeters hydrostatic pressure. The aorta is removed, cut into 10 equal segments, and following two additional hours in the buffered glutaraldehyde, is treated with 1% osmium tetroxide, dehydrated, infiltrated with Squer's resin and cured. The segments are stained with Stevenal's blue and basic fuchsin, and the lesion areas is determined with a zeiss standard microscope and Videoplan computerized image analyzer. Please see examples for results.
# Male Sprague-Dawley rats weighing 300-360 grams are individually ear tagged, housed and allowed to acclimate for two weeks prior to the start of the test. A constant formula rodent lab chow from Ralston Purina and water are available to the animals ad libitum.
# For two days prior to de-endothelialization and for 14 days after, pizotyline at a dose of 25 milligrams per kilogram and placebo are administered by gavage in physiological saline to nine drug animals and 19 control animals. All animals are dosed between 8:00 and 10:00 A.M. daily. […] The animals are weighed daily at the time of dosing and behavior for each animal is recorded three to four hours after dosing. […]
# On the day of de-endothelialization, the animals are anesthetized by ether inhalation and catheterization is carried out by the following procedure. […] The catheter balloon tip is advanced cephaled to the aortic arch region as determined through external catheter demarcations and inflated to a pre-established maximum diameter with approximately 900 mm Hg air pressure. […]
# [5] = test system: Smooth muscle cells (explants of bovine aortic media); test: Smooth muscle cell number, 72 h incubation with mitogen (Example 1, Table I); type: cell-based; conditions: for Cell Number/Plate: 72 h, mean ± SEM, n = 6; for smooth muscle proliferation in cell culture: with and without 2% human platelet-poor plasma
# Description: After the 72-hour incubation period, the cells are harvested for cell-number determination by Coulter Counter.
# [6] = test system: Smooth muscle cells (explants of bovine aortic media); conditions: shown by others; cited from earlier work
compound,measurement,setting,value
CN1CCC(=C2c3ccccc3C=Cc3ccccc32)CC1 [Cyproheptadine],effect on serotonin-induced increase in smooth muscle cell number,[1],attenuated
same,effect on 3H-thymidine incorporation / response to serotonin,[2]; PDGF 1 ng/ml,attenuates this response to serotonin
CSc1ccc2c(c1)C(N1CCN(C)CC1)Cc1ccccc1S2 (centres unmarked) [Methiothepin],inhibition of injury-induced smooth muscle cell proliferation,[3]; b.i.d.,marked inhibition; also recorded: remarkably effective
same,"dose dependent Specific Activity, methiothepin",[3]; methiothepin 0.3 mg/kg,51
same,"dose dependent Specific Activity, methiothepin",[3]; methiothepin 1.0 mg/kg,24
same,"dose dependent Specific Activity, methiothepin",[3]; methiothepin 3.0 mg/kg,23
same,Specific Activity of aortic smooth muscle cell DNA,"[3]; methiothepin 10 mg/kg i.p., b.i.d., control 91.6 ± 13.7, mean ± standard error (N = 6)",18.1 ± 5.3 CPM/ugDNA
same,"dose dependent Specific Activity, methiothepin",[3]; methiothepin 10.0 mg/kg,20
same,"Specific Activity for smooth muscle cell DNA, repeat test",[3],23 % of control
"CN1CCC(=C2c3ccccc3CCc3sccc32)CC1 [Pizotyline, 4-[1-methyl-4-piperidylidene]-9,10-dihydro-4H-benzo[4,5]cyclohepta[1,2-b]thiophene]","Mean Lesion Area, Abdominal","[4]; abdominal, 2 days before and 14 days after, normalized to 1,000 μm length, control 60,310.3","27,135.4 Square Microns"
same,"reduction of lesion formation, abdominal segments","[4]; abdominal, compared to control",55%
same,"Mean Lesion Area, Thoracic","[4]; thoracic, 2 days before and 14 days after, normalized to 1,000 μm length, control 50,283.1","11,834.8 Square Microns"
same,"mean reduction of lesion formation, thoracic segments","[4]; thoracic, compared to control lesion areas",77%
same,inhibition of injury-induced smooth muscle cell proliferation,[3]; b.i.d.,remarkably effective
COC(=O)[C@H]1[C@H]2C[C@@H]3c4[nH]c5cc(OC)ccc5c4CCN3C[C@H]2C[C@@H](OC(=O)c2cc(OC)c(OC)c(OC)c2)[C@@H]1OC [Reserpine],"Specific Activity for smooth muscle cell DNA, repeat test",[3],68 % of control
NCCc1c[nH]c2ccc(O)cc12 [Serotonin],effect on serotonin-induced increase in smooth muscle cell number,[1],increases the number of smooth muscle cells
same,Cell Number/Plate,[1]; serotonin 10^-5 M,7.68 ± 0.12 ×10^-5
same,% Maximum,"[1]; serotonin 10^-5 M, relative to 10% Fetal Calf Serum = 100",33%
same,effect on 3H-thymidine incorporation / response to serotonin,[2]; PDGF 1 ng/ml,stimulates smooth muscle cell proliferation
same,CPM/Well (3H-thymidine incorporation),[2]; serotonin 10^-6 M,306.4 ± 3.1 CPM/Well (×10^-3)
same,% Increase (3H-thymidine incorporation),[2]; serotonin 10^-6 M,240%
same,CPM/Well (3H-thymidine incorporation),[2]; serotonin 10^-7 M,139.8 ± 11.9 CPM/Well (×10^-3)
same,% Increase (3H-thymidine incorporation),[2]; serotonin 10^-7 M,55%
same,Cell Number/Plate,"[5]; No Plasma, serotonin 10^-5 M",8.34 ± 0.43 ×10^-5
same,Cell Number/Plate,"[5]; Plasma (2% human platelet-poor plasma), serotonin 10^-5 M",12.19 ± 0.13 ×10^-5
same,smooth muscle proliferation in cell culture,[5],more smooth muscle cells are present; also recorded: potent promoter of smooth muscle proliferation
same,inhibition of injury-induced smooth muscle cell proliferation,[3]; b.i.d.,important in mediating smooth muscle cell proliferation after vascular injury
PDGF,Cell Number/Plate,"[1]; PDGF 0.5 ng/ml, alone or with serotonin / cyproheptadine as in label",8.11 ± 0.23 ×10^-5
same,% Maximum,"[1]; PDGF 0.5 ng/ml, alone or with serotonin / cyproheptadine as in label, relative to 10% Fetal Calf Serum",39%
same,Cell Number/Plate,"[1]; PDGF 4.0 ng/ml, alone or with serotonin / cyproheptadine as in label",10.66 ± 0.16 ×10^-5
same,% Maximum,"[1]; PDGF 4.0 ng/ml, alone or with serotonin / cyproheptadine as in label, relative to 10% Fetal Calf Serum",72%
same,CPM/Well (3H-thymidine incorporation),[2]; PDGF 1 ng/ml,454.7 ± 28.3 CPM/Well (×10^-3)
same,% Increase (3H-thymidine incorporation),[2]; PDGF 1 ng/ml,405%
same,effect on 3H-thymidine incorporation / response to serotonin,[2]; PDGF 1 ng/ml,increase thymidine incorporation
same,mitogen for smooth muscle cells,[6],mitogen for smooth muscle cells
same,Cell Number/Plate,"[5]; No Plasma, PDGF 8 ng/ml",9.65 ± 0.29 ×10^-5
same,Cell Number/Plate,"[5]; Plasma (2% human platelet-poor plasma), PDGF 8 ng/ml",14.24 ± 0.04 ×10^-5
same,smooth muscle proliferation in cell culture,[5],active
